Test results as given in patent publication US20230143604A1, “QW DOSING OF GIP RECEPTOR AGONIST PEPTIDE COMPOUNDS AND USES THEREOF” (TAKEDA PHARMACEUTICAL COMPANY LIMITED, priority 2020, published 2023).

How the values were obtained:
[1] = test system: C57BL/6J mice; assay: Oral glucose tolerance test (OGTT); type: in vivo; conditions: 3 nmol/kg s.c., 24 hours before glucose loading
Procedure: An oral glucose tolerance test (OGTT) was carried out using C57BL/6J mice with a 50% dextrose solution dosed at 5 ml/kg. Testing concentrations of 0.1 nmol/kg, 0.3 nmmol/kg, 3 nmol/kg or 10 nmol/kg were selected depending on the peptide. Each peptide or a vehicle (control group) was subcutaneously administered 24 hours (unless shown otherwise) before glucose loading and the blood glucose was measured at 0, 15, 30, and 60 minutes after glucose dosing.
% inhibition=(1−(AUC cpd−AUC naïve/AUC veh−AUC naïve))×100.

[2] = Solubility in phosphate buffer pH 7.4
How it was run: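 Solubility at pH 7.4 determined by stepwise addition of 200 mM phosphate buffer in 100 μL increments to 3 mg peptide, mixing briefly each time, until no insoluble material remained, then measured by liquid chromatography.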

[3] = pH 7.4, aqueous buffer, pH 7.4 Phosphate Buffer - Solubility, 200 mM Phosphate buffer pH 7.4
[4] = pH 7.4, solubility in phosphate buffer at pH 7.4, 200 mM phosphate buffer pH 7.4

SMILES	Oral Glucose Tolerance Test Percent decrease in blood glucose AUC (%) over 60 mins [1]	solubility [2, 3] [mg/mL]	solubility [2, 4] [mg/mL]	solubility ([2]; pH 7.4) [mg/mL]	solubility ([2]; pH 7.4, aqueous buffer) [mg/mL]
CC[C@H](C)[C@H](NC(=O)[C@H](Cc1ccccc1)NC(=O)[C@@H](NC(=O)CNC(=O)[C@H](CCC(=O)O)NC(=O)C(C)(C)NC(=O)[C@H](Cc1ccc(O)cc1)NC)[C@@H](C)O)C(=O)N[C@@H](CO)C(=O)N[C@@H](CC(=O)O)C(=O)N[C@@H](Cc1ccc(O)cc1)C(=O)N[C@@H](CO)C(=O)N[C@H](C(=O)NC(C)(C)C(=O)N[C@@H](CCCCNC(=O)CNC(=O)CNC(=O)CNC(=O)CNC(=O)CNC(=O)CCCCCCCCCCCCCCCCC(=O)O)C(=O)N[C@@H](CC(=O)O)C(=O)N[C@@H](CCCNC(=N)N)C(=O)NC(C)(C)C(=O)N[C@@H](C)C(=O)N[C@@H](CCC(N)=O)C(=O)NC(C)(C)C(=O)N[C@@H](CC(=O)O)C(=O)N[C@@H](Cc1ccccc1)C(=O)N[C@H](C(=O)N[C@@H](CC(N)=O)C(=O)N[C@@H](Cc1c[nH]c2ccccc12)C(=O)N[C@@H](CC(C)C)C(=O)N[C@@H](CC(C)C)C(=O)N[C@@H](C)C(=O)N[C@@H](CCC(N)=O)C(=O)N[C@@H](CO)C(=O)N1CCC[C@H]1C(=O)N[C@@H](CO)C(=O)N[C@@H](CO)C(=O)NCC(=O)N[C@@H](C)C(=O)N1CCC[C@H]1C(=O)N1CCC[C@H]1C(=O)N1CCC[C@H]1C(=O)N[C@@H](CO)C(=O)O)C(C)C)[C@@H](C)CC [Compound 47]	48% (3 nmol/kg)	≥ 30	≥ 15		
CC[C@H](C)[C@H](NC(=O)[C@H](CO)NC(=O)[C@H](Cc1ccc(O)cc1)NC(=O)[C@H](CC(=O)O)NC(=O)[C@H](CO)NC(=O)[C@@H](NC(=O)[C@H](Cc1ccccc1)NC(=O)[C@@H](NC(=O)CNC(=O)[C@H](CCC(=O)O)NC(=O)C(C)(C)NC(=O)[C@H](Cc1ccc(O)cc1)NC)[C@@H](C)O)[C@@H](C)CC)C(=O)N[C@@H](C)C(=O)N[C@@H](CC(C)C)C(=O)N[C@@H](CC(=O)O)C(=O)N[C@@H](CCCNC(=N)N)C(=O)N[C@@H](CCCCNC(=O)CNC(=O)CNC(=O)CNC(=O)CNC(=O)CNC(=O)CCCCCCCCCCCCCCCCC(=O)O)C(=O)N[C@@H](C)C(=O)N[C@@H](CCC(N)=O)C(=O)NC(C)(C)C(=O)N[C@@H](CC(=O)O)C(=O)N[C@@H](Cc1ccccc1)C(=O)N[C@H](C(=O)N[C@@H](CC(N)=O)C(=O)N[C@@H](Cc1c[nH]c2ccccc12)C(=O)N[C@@H](CC(C)C)C(=O)N[C@@H](CC(C)C)C(=O)N[C@@H](C)C(=O)N[C@@H](CCC(N)=O)C(=O)N[C@@H](CCCNC(=N)N)C(=O)N1CCC[C@H]1C(=O)N[C@@H](CO)C(=O)N[C@@H](CO)C(=O)NCC(=O)N[C@@H](C)C(=O)N1CCC[C@H]1C(=O)N1CCC[C@H]1C(=O)N1CCC[C@H]1C(=O)N[C@@H](CO)C(=O)O)C(C)C [Compound 51]	50% (3 nmol/kg)	≥ 30	≥ 15		
CC[C@H](C)[C@H](NC(=O)[C@H](Cc1ccccc1)NC(=O)[C@@H](NC(=O)CNC(=O)[C@H](CCC(=O)O)NC(=O)C(C)(C)NC(=O)[C@H](Cc1ccc(O)cc1)NC)[C@@H](C)O)C(=O)N[C@@H](CO)C(=O)N[C@@H](CC(=O)O)C(=O)N[C@@H](Cc1ccc(O)cc1)C(=O)N[C@@H](CO)C(=O)N[C@H](C(=O)NC(C)(C)C(=O)N[C@@H](CCCCNC(=O)CNC(=O)CNC(=O)CNC(=O)CNC(=O)CNC(=O)CCCCCCCCCCCCCCCCC(=O)O)C(=O)N[C@@H](CC(=O)O)C(=O)N[C@@H](CCCNC(=N)N)C(=O)NC(C)(C)C(=O)N[C@@H](C)C(=O)N[C@@H](CCC(N)=O)C(=O)NC(C)(C)C(=O)N[C@@H](CC(=O)O)C(=O)N[C@@H](Cc1ccccc1)C(=O)N[C@H](C(=O)N[C@@H](CC(N)=O)C(=O)N[C@@H](Cc1c[nH]c2ccccc12)C(=O)N[C@@H](CC(C)C)C(=O)N[C@@H](CC(C)C)C(=O)N[C@@H](C)C(=O)N[C@@H](CCC(N)=O)C(=O)N[C@@H](CCCNC(=N)N)C(=O)N1CCC[C@H]1C(=O)N[C@@H](CO)C(=O)N[C@@H](CO)C(=O)NCC(=O)N[C@@H](C)C(=O)N1CCC[C@H]1C(=O)N1CCC[C@H]1C(=O)N1CCC[C@H]1C(=O)N[C@@H](CO)C(=O)O)C(C)C)[C@@H](C)CC [Compound 54]	43% (3 nmol/kg)	≥ 30	≥ 15		
CC[C@H](C)[C@H](NC(=O)[C@H](CO)NC(=O)[C@H](Cc1ccc(O)cc1)NC(=O)[C@H](CC(=O)O)NC(=O)[C@H](CO)NC(=O)[C@@H](NC(=O)[C@H](Cc1ccccc1)NC(=O)[C@@H](NC(=O)CNC(=O)[C@H](CCC(=O)O)NC(=O)C(C)(C)NC(=O)[C@H](Cc1ccc(O)cc1)NC)[C@@H](C)O)[C@@H](C)CC)C(=O)N[C@@H](C)C(=O)N[C@@H](CCCCNC(=O)CNC(=O)CNC(=O)CNC(=O)CNC(=O)CNC(=O)CCCCCCCCCCCCCCCCC(=O)O)C(=O)N[C@@H](CC(=O)O)C(=O)N[C@@H](CCCNC(=N)N)C(=O)NC(C)(C)C(=O)N[C@@H](C)C(=O)N[C@@H](CCC(N)=O)C(=O)NC(C)(C)C(=O)N[C@@H](CC(=O)O)C(=O)N[C@@H](Cc1ccccc1)C(=O)N[C@H](C(=O)N[C@@H](CC(N)=O)C(=O)N[C@@H](Cc1c[nH]c2ccccc12)C(=O)N[C@@H](CC(C)C)C(=O)N[C@@H](CC(C)C)C(=O)N[C@@H](C)C(=O)N[C@@H](CCC(N)=O)C(=O)N[C@@H](CCCNC(=N)N)C(=O)NCC(=O)O)C(C)C [Compound 63]	41% (3 nmol/kg)			≥ 15	
CC[C@H](C)[C@H](NC(=O)[C@H](CO)NC(=O)[C@H](Cc1ccc(O)cc1)NC(=O)[C@H](CC(=O)O)NC(=O)[C@H](CO)NC(=O)[C@@H](NC(=O)[C@H](Cc1ccccc1)NC(=O)[C@@H](NC(=O)CNC(=O)[C@H](CCC(=O)O)NC(=O)C(C)(C)NC(=O)[C@H](Cc1ccc(O)cc1)NC)[C@@H](C)O)[C@@H](C)CC)C(=O)N[C@@H](C)C(=O)N[C@@H](CCCCNC(=O)CNC(=O)CNC(=O)CNC(=O)CNC(=O)CNC(=O)CCCCCCCCCCCCCCCCC(=O)O)C(=O)N[C@@H](CC(=O)O)C(=O)N[C@@H](CCCNC(=N)N)C(=O)NC(C)(C)C(=O)N[C@@H](C)C(=O)N[C@@H](CCC(N)=O)C(=O)NC(C)(C)C(=O)N[C@@H](CC(=O)O)C(=O)N[C@@H](Cc1ccccc1)C(=O)N[C@H](C(=O)N[C@@H](CC(N)=O)C(=O)N[C@@H](Cc1c[nH]c2ccccc12)C(=O)N[C@@H](CC(C)C)C(=O)N[C@@H](CC(C)C)C(=O)N[C@@H](C)C(=O)N[C@@H](CCC(N)=O)C(=O)N[C@@H](CCCNC(=N)N)C(=O)N1CCC[C@H]1C(=O)N[C@@H](CO)C(=O)N[C@@H](CO)C(=O)NCC(=O)O)C(C)C [Compound 70]	56% (3 nmol/kg)			≥ 15	≥ 30
